In paper PMC8908507 (ACS Omega, 2022):
Entries after “also recorded” stand apart in the source; their conditions may differ.

Tests used:
[1] = biological target: BChE (Equus caballus, UniProt P81908); conditions: 10 μM
[2] = biological target: T1, MAO-B (Homo sapiens, UniProt P27338); experiment: MAO-B inhibition, recombinant enzyme, benzylamine substrate; format: biochemical; conditions: for SI (MAO-B compared with MAO-A): IC50 (MAO-A)/IC50 (MAO-B); for IC50: IC50 MAO-B; for remaining activity at 1 µM: read-out: residual activity (%) MAO-B
T1 sequence (P27338 1-520): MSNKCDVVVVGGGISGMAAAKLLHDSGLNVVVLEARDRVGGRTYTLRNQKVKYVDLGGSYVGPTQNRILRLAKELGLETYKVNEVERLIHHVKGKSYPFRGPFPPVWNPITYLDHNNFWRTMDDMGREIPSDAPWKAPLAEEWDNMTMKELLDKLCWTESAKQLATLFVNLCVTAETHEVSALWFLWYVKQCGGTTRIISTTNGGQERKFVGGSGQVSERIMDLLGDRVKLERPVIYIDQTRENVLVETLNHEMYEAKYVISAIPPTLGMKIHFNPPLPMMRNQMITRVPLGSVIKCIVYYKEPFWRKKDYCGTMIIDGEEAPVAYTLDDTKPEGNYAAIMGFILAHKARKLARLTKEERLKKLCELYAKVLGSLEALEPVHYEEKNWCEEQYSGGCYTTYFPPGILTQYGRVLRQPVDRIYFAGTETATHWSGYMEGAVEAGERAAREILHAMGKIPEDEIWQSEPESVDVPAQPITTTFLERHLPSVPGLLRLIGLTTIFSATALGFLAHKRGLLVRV

[3] = biological target: AChE (Electrophorus electricus, UniProt O42275); experiment: AChE inhibition; conditions: 10 μM
[4] = biological target: BACE1 (Homo sapiens, UniProt P56817); experiment: biochemical; conditions: read-out: residual activity (%) BACE1
[5] = biological target: T2, MAO-A (Homo sapiens, UniProt P21397); experiment: biochemical; conditions: for remaining activity at 10 µM: read-out: residual activity (%) MAO-A
T2 sequence (P21397 1-527): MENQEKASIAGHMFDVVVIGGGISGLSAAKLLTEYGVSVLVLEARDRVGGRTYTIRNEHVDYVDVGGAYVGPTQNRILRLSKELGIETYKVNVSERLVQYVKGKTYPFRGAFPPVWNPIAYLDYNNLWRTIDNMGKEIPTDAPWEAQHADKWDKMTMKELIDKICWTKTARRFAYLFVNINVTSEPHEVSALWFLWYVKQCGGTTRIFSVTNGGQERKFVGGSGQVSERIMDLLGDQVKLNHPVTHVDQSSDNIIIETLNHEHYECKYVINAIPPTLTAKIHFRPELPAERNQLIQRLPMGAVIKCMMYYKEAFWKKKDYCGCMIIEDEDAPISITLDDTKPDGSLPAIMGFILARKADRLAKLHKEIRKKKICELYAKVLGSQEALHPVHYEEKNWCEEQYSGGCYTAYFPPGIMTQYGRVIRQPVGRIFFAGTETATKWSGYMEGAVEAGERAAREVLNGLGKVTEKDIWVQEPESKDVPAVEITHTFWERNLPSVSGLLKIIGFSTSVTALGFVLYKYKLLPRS

[6] = system: Vero cells; experiment: Cytotoxicity on Vero cells, MTT method; format: cell-based, African green monkey; conditions: 100 μg/mL, 24 h
[7] = system: Vero cells; experiment: Intracellular ROS assay in H2O2-treated Vero cells; format: cell-based, African green monkey; conditions: 24 h drug treatment, vs H2O2-treated control
[8] = Cytotoxicity on Vero cells, MTT method; format: cell-based, African green monkey; conditions: African green monkey, Vero cells (normal kidney epithelial cell line)
[9] = biological target: T1, MAO-B; experiment: Reversibility of MAO-B inhibition by dialysis; format: biochemical
[10] = system: MAO-B; conditions: cited from earlier work

Chain of BChE (P81908 whole entry): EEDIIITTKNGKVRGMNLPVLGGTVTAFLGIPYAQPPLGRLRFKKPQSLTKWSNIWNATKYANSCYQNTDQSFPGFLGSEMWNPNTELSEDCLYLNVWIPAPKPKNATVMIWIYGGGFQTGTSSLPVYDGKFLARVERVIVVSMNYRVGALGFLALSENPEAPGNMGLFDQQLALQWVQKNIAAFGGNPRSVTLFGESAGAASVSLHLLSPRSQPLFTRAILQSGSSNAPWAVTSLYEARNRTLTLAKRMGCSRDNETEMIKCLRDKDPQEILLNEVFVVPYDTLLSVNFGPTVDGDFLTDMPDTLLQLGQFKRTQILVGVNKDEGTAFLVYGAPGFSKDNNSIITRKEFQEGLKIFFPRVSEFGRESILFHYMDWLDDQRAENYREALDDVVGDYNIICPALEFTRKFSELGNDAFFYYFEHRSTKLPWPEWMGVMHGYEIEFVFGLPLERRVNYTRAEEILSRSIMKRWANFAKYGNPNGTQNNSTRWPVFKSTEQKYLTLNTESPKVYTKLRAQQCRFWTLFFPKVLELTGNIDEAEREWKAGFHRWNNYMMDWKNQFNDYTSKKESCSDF
Chain of AChE (O42275 24-633): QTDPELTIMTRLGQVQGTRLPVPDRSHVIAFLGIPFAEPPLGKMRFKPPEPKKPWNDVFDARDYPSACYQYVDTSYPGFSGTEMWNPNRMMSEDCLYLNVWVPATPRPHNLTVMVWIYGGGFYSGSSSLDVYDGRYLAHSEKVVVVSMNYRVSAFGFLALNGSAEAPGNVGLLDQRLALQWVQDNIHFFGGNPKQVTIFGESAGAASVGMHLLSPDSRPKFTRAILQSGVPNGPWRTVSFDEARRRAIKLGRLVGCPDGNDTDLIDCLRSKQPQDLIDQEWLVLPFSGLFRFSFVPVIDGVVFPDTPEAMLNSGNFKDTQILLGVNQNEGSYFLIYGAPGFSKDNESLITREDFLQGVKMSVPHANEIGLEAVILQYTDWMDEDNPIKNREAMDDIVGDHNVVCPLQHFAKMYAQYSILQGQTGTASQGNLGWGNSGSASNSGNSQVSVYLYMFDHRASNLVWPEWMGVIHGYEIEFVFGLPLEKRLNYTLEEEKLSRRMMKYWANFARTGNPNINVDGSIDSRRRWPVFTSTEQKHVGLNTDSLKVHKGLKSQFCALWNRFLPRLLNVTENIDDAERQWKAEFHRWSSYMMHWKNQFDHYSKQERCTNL
Chain of BACE1 (P56817 46-501): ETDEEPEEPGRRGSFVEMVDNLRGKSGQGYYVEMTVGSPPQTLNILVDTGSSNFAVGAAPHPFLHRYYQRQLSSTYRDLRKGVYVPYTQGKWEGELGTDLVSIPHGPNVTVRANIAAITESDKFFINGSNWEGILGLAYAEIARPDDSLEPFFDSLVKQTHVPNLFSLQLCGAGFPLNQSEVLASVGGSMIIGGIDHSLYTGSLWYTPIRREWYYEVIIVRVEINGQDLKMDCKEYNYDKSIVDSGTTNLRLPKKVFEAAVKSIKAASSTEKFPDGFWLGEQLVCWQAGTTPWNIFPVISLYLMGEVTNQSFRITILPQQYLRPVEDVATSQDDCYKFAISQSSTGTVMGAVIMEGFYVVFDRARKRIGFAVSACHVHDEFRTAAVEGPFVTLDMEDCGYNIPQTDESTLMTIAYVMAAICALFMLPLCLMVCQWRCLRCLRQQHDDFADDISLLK

SMILES	residual activity (%) BChE [1]	SI (MAO-B compared with MAO-A) [2]	IC50 [2]	remaining activity at 1 µM [2]	residual activity (%) AChE [3]	remaining activity at 10 µM [4]	IC50 [5]	remaining activity at 10 µM [5]	toxicity by cellular morphology, phase-contrast microscopy [6]	intracellular ROS scavenging [7]	viability at 24 h, 80 μg/mL [8]	relative MAO-B activity, dialyzed (AD) ([9]; MK6/MK12 6.0 nM, lazabemide 0.22 μM, pargyline 0.28 μM, after dialysis)	relative MAO-B activity, undialyzed (AU) ([9]; MK6/MK12 6.0 nM, lazabemide 0.22 μM, pargyline 0.28 μM, preincubation 30 min)	reversibility of MAO-B inhibition ([9]; dialysis)	viability at 24 h, 60 μg/mL [8]	SI value [10]	IC50 ([10]; read-out: IC50 MAO-B)	Ki ([10]; read-out: Ki MAO-B)
O=C(/C=C/C=C/c1ccccc1)c1ccc(Cl)cc1 [MK1, (2E,4E)-1-(4-Chlorophenyl)-5-phenylpenta-2,4-dien-1-one]	94.1 ± 4.72%	1498.2	11.2 ± 1.65 nM	2.17 ± 1.49%	84.0 ± 0.23%	77.1 ± 0.0087%	16.7 ± 0.4 µM	83 ± 2.71%	–	–	–	–	–	–	–	–	–	–
O=C(/C=C/C=C/c1ccc(Br)cc1)c1ccc(Cl)cc1 [MK2, (2E,4E)-5-(4-Bromophenyl)-1-(4-chlorophenyl)penta-2,4-dien-1-one]	95.4 ± 2.86%	232.4	101 ± 1.63 nM	14.3 ± 0.43%	82.4 ± 0.98%	81.4 ± 0.97%	23.5 ± 0.86 µM	97.8 ± 0.16%	–	–	–	–	–	–	–	–	–	–
COc1ccc(/C=C/C=C/C(=O)c2ccc(Cl)cc2)cc1 [MK3, (2E,4E)-1-(4-Chlorophenyl)-5-(4-methoxyphenyl)penta-2,4-dien-1-one]	83.2 ± 0.46%	1290.2	13.1 ± 0.81 nM	5.81 ± 0.27%	81.4 ± 1.06%	84.8 ± 0.53%	16.9 ± 0.5 µM	73.6 ± 2.83%	–	–	–	–	–	–	–	–	–	–
O=C(/C=C/C=C/c1ccc(F)cc1)c1ccc(Cl)cc1 [MK4, (2E,4E)-1-(4-Chlorophenyl)-5-(4-fluorophenyl)penta-2,4-dien-1-one]	94.9 ± 7.16%	1609.8	9.67 ± 0.47 nM	1.61 ± 2.28%	90.7 ± 0.57%	72.5 ± 0.9%	15.6 ± 0.63 µM	77 ± 6.2%	–	–	–	–	–	–	–	–	–	–
O=C(/C=C/C=C/c1ccc([N+](=O)[O-])cc1)c1ccc(Cl)cc1 [MK5, (2E,4E)-1-(4-Chlorophenyl)-5-(4-nitrophenyl)penta-2,4-dien-1-one]	71.6 ± 1.05%	4783.0	4.02 ± 0.13 nM	5.81 ± 0.27%	74.1 ± 1.42%	73.3 ± 2.51%	19.2 ± 0.94 µM	72.9 ± 0.44%	no signs of toxicity	significant scavenging effect of reactive oxygen species; also recorded: significant ROS scavenging effect	–	–	–	–	–	–	–	–
O=C(/C=C/C=C/c1ccccc1)c1ccc(Br)cc1 [MK6, (2E,4E)-1-(4-Bromophenyl)-5-phenylpenta-2,4-dien-1-one]	97.5 ± 3.58%	–	–	–	74.7 ± 0.66%	74.1 ± 1.48%	20.6 ± 1.02 µM	84 ± 1.22%	no signs of toxicity	significant scavenging effect of reactive oxygen species; also recorded: significant ROS scavenging effect	> 70%	79.2%	34.9%	reversible inhibitors	–	–	–	–
O=C(/C=C/C=C/c1ccc(Br)cc1)c1ccc(Br)cc1 [MK7, (2E,4E)-1,5-Bis(4-bromophenyl)penta-2,4-dien-1-one]	99.2 ± 1.09%	1400.0	15.5 ± 0.06 nM	8.9 ± 0.15%	75.8 ± 0.73%	84.5 ± 0.91%	21.7 ± 2.01 µM	85.4 ± 1.99%	–	–	–	–	–	–	–	–	–	–
COc1ccc(/C=C/C=C/C(=O)c2ccc(Br)cc2)cc1 [MK8, (2E,4E)-1-(4-Bromophenyl)-5-(4-methoxyphenyl)penta-2,4-dien-1-one]	80.7 ± 7.70%	1443.8	16.7 ± 0.62 nM	7.85 ± 0.22%	86.1 ± 5.10%	80.9 ± 1.67%	24.1 ± 0.038 µM	69.6 ± 2.03%	–	–	–	–	–	–	–	–	–	–
O=C(/C=C/C=C/c1ccc(F)cc1)c1ccc(Br)cc1 [MK9, (2E,4E)-1-(4-Bromophenyl)-5-(4-fluorophenyl)penta-2,4-dien-1-one]	87.4 ± 6.95%	1671.7	13.5 ± 1.06 nM	2.6 ± 0.57%	57.7 ± 0.00%	65 ± 1.61%	22.5 ± 0.047 µM	74.9 ± 1.29%	–	–	–	–	–	–	–	–	–	–
O=C(/C=C/C=C/c1ccc([N+](=O)[O-])cc1)c1ccc(Br)cc1 [MK10, (2E,4E)-1-(4-Bromophenyl)-5-(4-nitrophenyl)penta-2,4-dien-1-one]	87.9 ± 1.86%	481.0	40.6 ± 0.87 nM	3.4 ± 0.14%	84.0 ± 0.73%	69.4 ± 1.03%	19.5 ± 0.59 µM	69.1 ± 1.32%	–	–	–	–	–	–	–	–	–	–
O=C(/C=C/C=C/c1ccc(Br)cc1)c1ccc(F)cc1 [MK11, (2E,4E)-5-(4-Bromophenyl)-1-(4-fluorophenyl)penta-2,4-dien-1-one]	89.2 ± 6.58%	1394.7	19.8 ± 0.53 nM	3.45 ± 0.21%	77.8 ± 2.19%	71.4 ± 1.03%	27.5 ± 0.82 µM	76.9 ± 3.02%	–	–	–	–	–	–	–	–	–	–
O=C(/C=C/C=C/c1ccc([N+](=O)[O-])cc1)c1ccc(F)cc1 [MK13, (2E,4E)-1-(4-Fluorophenyl)-5-(4-nitrophenyl)penta-2,4-dien-1-one]	97.8 ± 1.55%	5635.2	4.24 ± 0.13 nM	1.95 ± 0.067%	91.5 ± 0.80%	76.7 ± 0.64%	23.7 ± 0.17 µM	71.5 ± 8.06%	–	–	–	–	–	–	–	–	–	–
COc1ccc(/C=C/C=C/C(=O)c2ccccc2)cc1 [MK14, (2E,4E)-5-(4-Methoxyphenyl)-1-phenylpenta-2,4-dien-1-one]	89.0 ± 1.55%	3871.5	4.89 ± 0.17 nM	-0.95%	84.7 ± 5.62%	77.3 ± 1.23%	18.9 ± 1.02 µM	61.4 ± 6.27%	no signs of toxicity	significant scavenging effect of reactive oxygen species; also recorded: significant ROS scavenging effect	–	–	–	–	> 80%	–	–	–
O=C(/C=C/C=C/c1ccc([N+](=O)[O-])cc1)c1ccccc1 [MK15, (2E,4E)-5-(4-Nitrophenyl)-1-phenylpenta-2,4-dien-1-one]	80.2 ± 1.55%	1025.8	12.4 ± 7.92 nM	-3.52%	68.8 ± 0.80%	89.5 ± 0.92%	12.7 ± 0.57 µM	54.4 ± 5.37%	–	–	–	–	–	–	–	–	–	–
O=C(C=CC=Cc1ccccc1)c1ccc(N2CCOCC2)cc1 [MO10, 1-[4-(morpholin-4-yl)phenyl]-5-phenylpenta-2,4-dien-1-one]	–	–	–	–	–	–	–	–	–	–	–	–	–	–	–	366.13	44 nM	8 ± 3 nM
